Tested on: endothelin A receptor / endothelin B receptor / endothelin converting enzyme
Experiment: not given
Conditions: ETA: endothelin A receptor; ETB: endothelin B receptor; ECE: endothelin converting enzyme (inhibition); from the literature cited in the tables; cited from earlier work

Row | Compound | Selectivity
1 | Ac-D-Dip-Leu-Asp-Ile-Ile-Trp.2Na [PD142893] | ETA/ETB
2 | cyc(D-Trp-D-Asp-Pro-D-Val-Leu) [BQ-123] | ETA
3 | COc1ccc(-c2nc(NS(=O)(=O)c3ccc(C(C)(C)C)cc3)c(Oc3ccccc3OC)c(OC[C@@H](O)CO)n2)cc1 [Ro46-8443, 4-tert-butyl-N-[(S)6-(2,3-dihydroxypropoxy)-5-(2-methoxyphenoxy)-2-(4-methoxyphenyl)-pyrimidin-4-yl]-benzene sulphonamide] | ETB
4 | CC1(C)CC[C@]2(C(=O)O)CC[C@]3(COC(=O)/C=C/c4ccc(O)c(O)c4)C(=CC[C@@H]4[C@@]5(C)CCC(=O)C(C)(C)[C@@H]5CC[C@]43C)[C@@H]2C1 [50-235, 27-O-caffeoyl myricerone] | ETA
5 | 27-O-3-[2-(3-carboxy-acryloylamino)-5-hydroxyphenyl]-acryloyloxy myricerone, sodium salt [97-139] | ETA
6 | O=P(CN[C@@H](Cc1ccc(-c2ccccc2)cc1)c1nnn[nH]1)(Oc1ccccc1)Oc1ccccc1 [CGS-26393, diphenyl[(S)-2-diphenyl-4-yl-1-(1H-tetrazol-5-yl)-ethylamino-methyl] phosphonate] | ECE
7 | CCCc1cc(C(=O)OC)ccc1CC(C(=O)NS(=O)(=O)c1ccc(C(C)C)cc1)c1ccc2c(c1)OCO2 (racemic) [L-751281, (±)N-[2-(3,4-methylenedioxyphenyl)-3-(4-carbomethoxy-2-propylphenyl)-propanoly]-4-(isopropyl)benzene sulphonamide] | ETA
8 | Cc1noc(NS(=O)(=O)c2cccc3c(N(C)C)cccc23)c1C [BMS-182874, 5-(dimethylamino)-N-(3,4-dimethyl-5-isoxazolyl)-1-naphthalene sulphonamide] | ETA
9 | COc1cccc(Oc2c(NS(=O)(=O)c3ccc(C(C)(C)C)cc3)ncnc2OCCO)c1 [Ro46-2005, 4-tert-butyl-N-[6-(2-hydroxyethoxy)-5-(3-methoxyphenoxy)-4-pyrimidinyl]-benzenesulphonamide] | ETA/ETB
10 | COC(=O)c1cc(O)cc(OC)c1Oc1cc(C)cc(O)c1C(=O)O [Asterric acid] | ETA
11 | [Cys^11 -Cys^15 ]-ET-1(11-21) [IRL-1038] | ETB
12 | CC(C)C[C@H](NP(=O)(O)CC(O)CO)C(=O)N[C@@H](Cc1c[nH]c2ccccc12)C(=O)[O-].CC(C)C[C@H](NP(=O)(O)CC(O)CO)C(=O)N[C@@H](Cc1c[nH]c2ccccc12)C(=O)[O-].[Na+].[Na+] (stereo partly drawn) [S-17162, N-(2,3 dihydroxy propyl phosphonyl)-(S)-Leu-(S)-Trp-OH, disodium salt] | ECE
13 | COc1cc(C2=C(CC3CCCCC3)C(O)(c3ccc4c(c3)OCCO4)OC2=O)cc2c1OCO2 (centres unmarked) [PD160874, 4-cryclohexyl-methyl-5-[2,3-dihydro-benzo(1,4)dioxin-6-yl]-5-hydroxy-3-[7-methoxybenzo(1,3)-dioxol-5-yl]-5H-furan-2-one] | ETA/ETB
14 | Cc1cc(C)cc(C(=O)N(C)[C@H](Cc2ccc(-c3ccno3)cc2)C(=O)N[C@@H](Cc2c[nH]c3ccccc23)C(=O)O)c1 [IRL2796, N-(3,5-dimethylbenzoyl)-N-methyl-(D)-[4-(5-isoxazolyl)-phenyl]-alanyl-L-tryptophan] | ETB
15 | cys(D-Sal-L-Pro-D-Val-L-Leu-D-Trp) [BQ-153] | ETA
16 | CC(C)C[C@H](NC(=O)N1CCCCCC1)C(=O)N[C@H](Cc1cn(C)c2ccccc12)C(=O)N[C@H](Cc1ccc(O)cc1)C(=O)O [PD151242, (N-[(hexahydro-1-azepinyl)carbonyl])-L-Leu(1-Me)D-Trp-D-Tyr] | ETA
17 | Cc1cc(C)cc(C(=O)N(C)[C@H](Cc2ccc(-c3ccsc3)cc2)C(=O)N[C@@H](Cc2c[nH]c3ccccc23)C(=O)O)c1 [IRL2659, N-(3,5-dimethylbenzoyl)-N-methyl-(D)-[4-(3-thienyl)-phenyl]-alanyl-L-tryptophan] | ETB

Row | Compound | Selectivity
18 | Dmpc-.tau.-MeLeu-D-Trp(1-CO2 CH3)-D-Nle-OH [BQ-788] | ETB
19 | CCCc1cc(C(=O)O)ccc1OC(C(=O)NS(=O)(=O)c1ccc(C(C)C)cc1)c1ccc2c(c1)OCO2 (single isomer, unassigned; (-)) [L-754142, (-)N-(4-isopropylbenzenesulphonyl)-α-(4-carboxy-2-n-propylphenoxy)-3,4-methylene dioxyphenyl acetamide] | ETA
20 | CCCOc1ccc2c(c1)[C@@H](c1ccc(OC)cc1OCCO)[C@H](C(=O)O)[C@H]2c1ccc2c(c1)OCO2 [SB-217242, (+)-(1S,2R,3S)-3-[2-(2-hydroxyeth-1-yloxy)-4-methoxyphenyl]-1-(3,4-methylenedioxyphenyl)-5-(prop-1-yloxy)indan-2-carboxylic acid] | ETA/ETB
21 | CC(C)C[C@H](NC(=O)N1CCCCCC1)C(=O)NC(Cc1cn(C)c2ccccc12)C(=O)N[C@H](Cc1ccccn1)C(=O)O (stereo partly drawn) [FR139317, (R)-2-{(S)-2-([1-{hexahydro-1H-azepinyl}carbonyl]-amino-methyl-pentamoyl)}-amino-3-(3[1-methyl-1H-indolyl])propionylamino-3-(2-pyridyl)propionic acid] | ETA
22 | CCCc1cc(C(=O)O)ccc1OC(C(=O)NS(=O)(=O)c1ccc(C(C)C)cc1)c1ccc2c(c1)OCO2 (racemic) [L-749329, (±)N-(4-isopropylbenzenesulphonyl)-α-(4-carboxy-2-n-propylphenoxy)-3,4-methylene dioxyphenyl acetamide] | ETA
23 | COc1ccc(C(=O)C(Cc2cc(OC)c(OC)c(OC)c2)=C(C(=O)O)c2ccc3c(c2)OCO3)cc1 [PD156707, 2-benzo(1,3)dioxol-5-yl-4-(4-methoxyphenyl)-4-oxo-3-(3,4,5-trimethoxybenzyl)-but-2-enoate] | ETA
24 | CC(C)C[C@H](NP(=O)(O)O[C@@H]1O[C@@H](C)[C@H](O)[C@@H](O)[C@H]1O)C(=O)N[C@@H](Cc1c[nH]c2ccccc12)C(=O)O [Phosphoramidon, N-phosphonyl L-Leu-L-Trp] | ECE
25 | cyc(Gly-Asn-Trp-His-Gly-Thr-Ala-Pro-Asp)-Trp-Phe-Asn-Tyr-Tyr-Trp [RES-7011] | ETB
26 | CC(C)C[C@H](NP(=O)(O)CCc1ccc2ccccc2c1)C(=O)N[C@@H](Cc1c[nH]c2ccccc12)C(=O)O [N-2-(2-naphthyl)ethyl-phosphonyl-L-Leu-L-Trp] | ECE
27 | COc1ccccc1Oc1c(NS(=O)(=O)c2ccc(C(C)(C)C)cc2)nc(-c2ncccn2)nc1OCCO [compound 2, 4-Tert-butyl-N-[6-(2-hydroxyethoxy)-5-(2-methoxyphenoxy)-2,2'-bipyrimidin-4-yl]-benzene sulfonamide] | ETA/ETB
28 | O=P(O)(O)CN[C@@H](Cc1ccc(-c2ccccc2)cc1)c1nnn[nH]1 [CGS-26303, (S)-2-diphenyl-4-yl-1-(1H-tetrazol-5-yl)-ethylaminomethyl phosphonic acid] | ECE
29 | Ac-D-Bhg-Leu-Asp-Ile-Ile-Trp.2Na [PD145065] | ETA/ETB
30 | COc1ccc(C(=O)C(Cc2ccccc2)=C(C(=O)O)c2ccc3c(c2)OCO3)cc1 [PD155080, 2-benzo(1,3)dioxol-5-yl-3-benzyl-4-(4-methoxyphenyl)-4-oxobut-2-enoate] | ETA
31 | Cc1cc(C)cc(C(=O)N(C)[C@H](Cc2ccc(-c3ccccc3)cc2)C(=O)N[C@@H](Cc2c[nH]c3ccccc23)C(=O)O)c1 [IRL2500, N-(3,5-dimethylbenzoyl)-N-methyl-(D)-[(4-phenyl)-phenyl]-alanyl-L-tryptophan] | ETB
32 | CCCOc1cccc(CC(C(=O)c2ccc(OC)cc2)=C(C(=O)O)c2ccc3c(c2)OCO3)c1 [PD155719, 2-(1,3-benzodioxol-5-yl)-4-(4-methoxyphenyl)-4-oxo-3[(3-propoxyphenyl)methyl]-2-butenoic acid] | ETA
33 | CCCCCOc1c(OC)cc(CC2=C(c3ccc4c(c3)OCO4)C(=O)OC2(O)c2ccc(OC)cc2)cc1OC (centres unmarked) [PD160672, 3-benzo(1,3)dioxol-5-yl-(3,5-dimethoxy-4-pentyloxybenzyl)-5-hydroxy-5-(4-methoxyphenyl)-5H-furan-2-one] | ETA/ETB
34 | CC(=O)NC(CSC12CCC3(O)CC(C)=CC(=O)C3(O)C1(O)C(=O)c1cccc(O)c1C2=O)C(=O)O (centres unmarked) [WS009A, 2-acetamido-3-[[1,4,4a,5,6,6a,7,12,12a,12b-decahydro-4a,8,12a,12b-tetra-hydroxy-3-methyl-1,7,12-trioxobenz[a]anthracen-6a-yl]-thio]propionic acid] | ETA

Tested on: total brain infarct models (gerbils, bilateral common carotid arteries obstructed for 15 minutes)
Experiment: Total brain infarct model, survival (Test Example 2)
Type: in vivo, gerbil
Conditions: 3 mg/kg intraperitoneally twice (60 min before obstruction, 90 min after reperfusion), n=11, vehicle group 0%, p<0.05
Description: Mature male gerbils were divided into 2 groups and total brain infarct models were constructed by obstructing the bilateral common carotid arteries for 15 minutes (Nagisa et al., Basic Pharmacology & Therapeutics,23, 103-108, 1995). Control saline (vehicle) (Group A) and compound 2 (3 mg/kg) (Group B) were administered intraperitoneally twice, namely 60 minutes before obstruction and 90 minutes after reperfusion and the survival rates at 8 hours following reperfusion were compared between the groups. Intergroup comparison was made by ANOVA test (one-way analysis of variance).

Row | Compound | survival rate at 8 hours after reperfusion [%]
35 | COc1ccccc1Oc1c(NS(=O)(=O)c2ccc(C(C)(C)C)cc2)nc(-c2ncccn2)nc1OCCO [compound 2, 4-Tert-butyl-N-[6-(2-hydroxyethoxy)-5-(2-methoxyphenoxy)-2,2'-bipyrimidin-4-yl]-benzene sulfonamide] | 36

Source: patent US6251861A, “Treatment of cerebral infarction using cyclic hexapeptides” (Takeda Chemical Industries, Ltd., priority 1996, dated 2001)
